According to patent publication US9018391B2, “Inhibitors of beta-secretase” (Boehringer Ingelheim International GmbH, priority 2012, dated 2015):

Assays:
[1] = target: truncated human beta-secretase, BACE1 (amino acids 1-454) (Homo sapiens (Human), UniProt P56817); test: BACE1 Assay (Assay 1), fluorescence quench assay; format: biochemical; settings: pH 4.4
Procedure: The substrate was dissolved at 1 mg/ml in DMSO.
The assay was performed in the presence of OptiMEM™ (supernatant collected over 24 h and cleared from cellular debris by centrifugation) containing the ectodomain of BACE1, 25 μl water containing the desired 2-fold concentration of test compound and 2% DMSO, 1 μM substrate peptide, 20 mM NaOAc, pH 4.4, and 0.04% Triton-X100 in a total assay volume of 50 μl in a 384 well plate. In general, 25 μl of compound dilution were added to the plate followed by the addition of 10 μl of BACE1 containing OptiMEM™ diluted 1:10 in water with 0.2% Triton X-100. The reaction was started with the addition of 15 μl substrate in NaOAc buffer. The reaction was incubated at rt (dark) in an Envision® multilabel reader (Perkin Elmer) and the cleavage of the substrate was recorded as kinetic for […] at ex: 485 nm, em: 538 nm. Blank wells containing no enzyme were included on each plate.
The intensity of fluorescence was regressed against time in order to derive velocities of reaction in all 384 wells. These velocities were used for calculating percent control using an uninhibited control containing 1% DMSO as 100% and a blank control performed in the absence of enzyme as 0%. IC50 values were calculated by fitting percent control vs. test compound concentration using Assay Explorer®.

Human Hepatocytes = test: In Vitro Hepatocyte Stability Assay (Assay 4); format: in vitro ADME; settings: predicted blood clearance as percent of hepatic blood flow
Procedure: In Vitro Hepatocyte Stability Assay (Assay 4)
The metabolic degradation of test compounds was assayed in a hepatocyte suspension. Cryopreserved hepatocytes were incubated in an appropriate buffer system (e.g., Dulbecco's modified eagle medium plus 3.5 μg glucagon/500 mL, 2.5 mg insulin/500 mL and 3.75 mg/500 mL hydrocortison) containing 5% species serum. Following a 30 min preincubation in an incubator (37° C., 10% CO2), 5 μl of test compound solution (80 μM; from 2 mM in DMSO stock solution diluted 1:25 with medium) were added into 395 μl hepatocyte suspension (cell density in the range 0.25−5×10^6 cells/mL, typically 1×10^6 cells/mL; final concentration of test compound final DMSO concentration […]).
The cells were incubated for six h (incubator, orbital shaker) and samples (25 μl) were taken at 0, 0.5, 1, 2, 4 and 6 h. Samples were transferred into acetonitrile and pelleted by centrifugation (5 min). The supernatant was transferred to a new 96 DeepWell™ plate, evaporated under nitrogen and resuspended. Decline of compound was analyzed by HPLC-MS/MS. CLint (in vitro hepatic intrinsic clearance) was calculated as follows: CLint=Dose/AUC=(C0/CD)/(AUD+Clast/k)×1000/60
C0: initial concentration in the incubation [μM];
CD: cell density of vital cells [cells/mL];
AUD: area under the data [μM×h];
Clast: concentration of last data point [μM];
k: slope of the regression line for compound decline [h^−1].
The calculated in vitro hepatic intrinsic clearance was scaled up to the intrinsic in vivo hepatic clearance (Clint in vivo) and used to predict hepatic in vivo blood clearance (CL) by the use of a liver model (well-stirred model), as follows: CLint,in vivo[mL/min/kg]=(CLint[μL/min/10^6 cells]×hepatocellularity[10^6 cells/g liver]×liver factor [g/kg body weight])/1000 CL[mL/min/kg]=CLint,to vivo×hepatic blood flow[ml/min/kg]/(CLint,in vivo[ml/min/kg]+hepatic blood flow[mL/min/kg])
The in vivo blood clearance was transformed into percent of the hepatic blood flow (% Qh): % Qh=CL[mL/min/kg]/hepatic blood flow[mL/min/kg])×100
Hepatocellularity, human: 1.2×10^7 cells/g liver;
Liver factor, human: 25.7 g/kg body weight;
Hepatic blood flow, human: 21 mL/(min×kg).

[2] = system: brain amyloid peptides Aβ1-x; test: Rat Brain Aβ Lowering Assay (Assay 5); format: in vivo; settings: 3 hrs after dosing
Procedure: Rat Brain Aβ Lowering Assay (Assay 5)
The animals were sacrificed 3 hrs after dosing, and brains were excised, dissected into cerebellum and left and right cerebra and flash-frozen in liquid nitrogen.
The cerebrum was homogenized (5 volumes per weight) in 20 mM Tris-HCL, pH 8.5, 0.2% Triton-X100 supplemented with protease inhibitors (cOmplete, Roche Applied Science) at 4° C. using a glass Dounce homogenizer. The homogenate was centrifuged at 120,000×g for 60 min at 4° C., and the supernatant was collected and analyzed for […] using immunoassay with chemiluminescent detection (Meso-Scale Discovery, Rockville, Md. (MSD)).
Streptavidin 96-well plates (MSD) were pre-blocked with 5% Blocker A solution (MSD) for 1 hr at rt on an orbital shaker and washed 4 times with phosphate buffered saline (PBS). The wells were pre-coated with 20 ng/well of biotinylated antibody SIG-39155 (Clone M3.2, specific for amino acids 10-15 of the rodent Aβ) for 1 hr at rt and washed 4 times with PBS. For Aβ1-x analysis, 25 μl of either the cleared brain lysates or Aβ1-40 standards (8-500 pg/ml, with 2× increment) were incubated for 1 hr at rt with constant shaking. The wells were washed 4 times with PBS, and 25 μl of the detection antibody (Sulfo-TAG labeled anti-Aβ40 antibody supplied by MSD) was added and incubated for 1 hr at rt. After 4 washes with PBS, 150 μl of the chemiluminescence detection reagent (Read Buffer T, MSD) was added, and the plate was read on an MSD Sector Imager 6000 instrument. The calibration curve was fit into a non-linear four-parameter regression model, and the Aβ1-x concentrations were calculated for each well containing the cleared brain lysates. The percent of Aβ lowering was calculated based on the difference with the average Aβ concentration obtained for the brains from the animals treated with vehicle alone.

Chain of truncated human beta-secretase, BACE1 (amino acids 1-454) (P56817 22-454): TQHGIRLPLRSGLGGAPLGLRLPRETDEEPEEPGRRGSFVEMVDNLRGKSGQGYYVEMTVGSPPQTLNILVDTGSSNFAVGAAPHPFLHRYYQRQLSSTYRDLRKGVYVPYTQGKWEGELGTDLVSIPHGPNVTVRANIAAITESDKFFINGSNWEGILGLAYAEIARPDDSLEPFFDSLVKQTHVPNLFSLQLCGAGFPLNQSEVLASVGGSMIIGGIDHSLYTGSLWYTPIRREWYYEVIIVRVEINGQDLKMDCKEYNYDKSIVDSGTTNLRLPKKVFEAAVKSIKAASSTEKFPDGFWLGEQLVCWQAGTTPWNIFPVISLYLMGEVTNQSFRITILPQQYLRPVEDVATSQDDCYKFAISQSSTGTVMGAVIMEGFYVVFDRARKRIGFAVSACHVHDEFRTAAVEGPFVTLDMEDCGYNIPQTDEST

SMILES | IC50 [1] [nM] | In vitro Human Hepatocytes % Qh @ 1 μM (assay 4) (Human Hepatocytes) [% Qh] | % Aβ Reduction ([2]; single oral dose 25 mg/kg) [%] | % Aβ Reduction ([2]; single oral dose 12.5 mg/kg) [%]
CC[C@@H]1C[C@]2(CC[C@H]1O)Cc1ccc(C#N)cc1[C@]21N=C(N)N(CC(C)(C)F)C1=O [Example 9] | 10.7 | 12.4 | 42 | 
CC[C@@H]1C[C@@]2(Cc3ccc(C#N)cc3[C@]23N=C(N)N(CC(C)(C)F)C3=O)C[C@H](C)[C@H]1O [Example 7] | 3.4 | 13 | 58 | 
C[C@@H]1C[C@@]2(Cc3ccc(C#N)cc3[C@]23N=C(N)N(CC2(F)CCOCC2)C3=O)C[C@H](C)[C@H]1O [Example 4] | 2.7 | 6.1 |  | 21
C[C@@H]1C[C@@]2(Cc3ccc(C#N)cc3[C@]23N=C(N)N(CCC(F)(F)F)C3=O)C[C@H](C)[C@H]1O [Example 1] | 14.6 | 0 | 25 | 
C[C@@H]1C[C@@]2(Cc3ccc(C#N)cc3[C@]23N=C(N)N(CC(C)(C)F)C3=O)C[C@H](C)[C@H]1O [Example 2] | 10.3 | 1.6 |  | 40
